Measured values reported in patent US20220313620A1, “COMPOSITION FOR PREVENTING AND TREATING TAUOPATHIES” (SERVICIO ANDALUZ DE SALUD, priority 2019, published 2022).

What was measured:
Ghrelin = test: Plasma ghrelin (ELISA) after acute oral gavage in fasted rats; type: in vivo; conditions: oral 500 mg/kg, adult male Wistar rats, FIG. 3A / FIG. 4
Procedure: The protocol was approved by the Ethics Committee for Animal Experiments of the University of Malaga.
D-Pinitol (3-0-methyl-D-chiro-inositol) was generously provided by EURONUTRA SL (https://www.euronutra.com/, Malaga, Spain), in the form of crystalline fine powder (lot: PPN-M0201). For acute treatments, D-Pinitol was dissolved in water to be administered by gavage (orally) at different concentrations (100 mg/Kg and 500 mg/Kg), drug was administered at a volume of 1 ml/kg.
After 18 hours of fasting, D-Pinitol dissolved in water was administered acutely by gavage (100 mg/kg in a first study, and 500 mg/kg in a subsequent study). After administration, the animals were sacrificed in groups at different times (being time 0 the administration of D-Pinitol). For the first study (100 mg/kg), groups of animals were sacrificed at times: 10, 20, 30, 60, 120, 240 and 360 minutes after administration; for the second study (500 mg/kg), animals were sacrificed at times: 60, 120 and 240 minutes after administration. As a control group, a group was administered only with water (by gavage).
Animals were anesthetized with sodium pentobarbital (50 mg/Kg, i.p.), blood, brain and liver samples were collected. Blood was centrifuged (2100 g for 8 min, 4° C.) and the plasma kept for further analysis. Liver and brain samples were flash-frozen in liquid N2, then stored at −80° C. until further analysis.
The plasma levels of insulin and ghrelin were determined with an enzyme-linked immunosorbent assay (ELISA) method using commercial kits: EMD Millipore Corporation (Billerica, Mass., USA) Cat. #EZRMI-13K and Cat. #EZRGRT-91K, respectively. Glucagon levels in plasma was determined with a Glucagon Enzyme Immunoassay (EIA) Kit: Cat. #RAB0202 Sigma-Aldrich (Saint Louis, Mo., USA). All serum samples were assayed in duplicate within one assay, and results were expressed in terms of the particular standard hormone.

[1] = test system: glycogen synthase kinase-3β (GSK-3β); test: Hippocampal GSK-3β phosphorylation and total level (western blot) after 10 days of oral administration; type: in vivo, Wistar rats; conditions: oral 100 mg/Kg for 10 days, hippocampus
Procedure: (§1) Animal experimental procedures were carried out in accordance with the European Communities directive 2010/63/EU and Spanish legislation (Real Decreto 53/2013). The protocol was approved by the Research and approved by Ethics Committee for Animal Experiments of the University of Malaga, Spain. In accordance with the ARRIVE guidelines, all efforts were made to minimize animal suffering and to reduce the number of animals used per experimental group. Chronic drinking experiments on Wistar rats were performed on 20 male rats. All adult rats, ageing 2 months (≈300 g of body weight), were provided by Charles River Laboratories (Barcelona, Spain). The animals were housed individually under a standard 12 h light-dark cycle in a room with temperature and humidity control. Water and rat chow pellets were provided ad libitum throughout the course of the present study.
(§2) Caromax®-D-Pinitol (3-O-methyl-d-chiro-inositol, DPIN, 98% purity) and Caromax®-D-Chiro-inositol (cis-1,2,3-trans-3,5,6-cyclohexanehexol, DCI) were provided by Euronutra SL (Málaga, Spain). They were dissolved in water to orally daily administration by drinking and/or gavage at dose of 100 mg/Kg of body weight (BW) in a 1 ml/kg of BW volume to Zucker and Wistar rats for 4 weeks (28 days) and 10 days, respectively (FIG. 1). During the drinking treatments, the concentration of inositols in the water were updated considering the daily increase of BW of the rats and the possible loss of water by evaporation.
(§3) Brain extract. Frozen brain samples (17 mg per sample) were homogenized in 1 mL of cold RIPA lysis buffer (50 mM Tris-HCl pH 7.4, 150 mM NaCl, 0.5% NaDOC, 1 mM EDTA, 1% Triton, 0.1% SDS, 1 mM Na3VO4, 1 mM NaF) supplemented with a protease cocktail (Hoffmann-Roche). The suspension was incubated for 2 hours at 4° C., followed by centrifugation at 12,000 rpm for 15 minutes at 4° C. The supernatant was transferred to a new clean centrifuge tube, and Bradford colorimetric method was used to determine the concentration of the total protein. The protein extracts were diluted 1:1 in loading buffer (DTT 2X) and heated for 5 minutes at 99° C. before being subjected to electrophoresis.
Western Blot Analysis. The tissue protein (10-15 μg) was subjected to electrophoresis on 4-12% Criterion XT Precast Bis-Tris gels (Bio-Rad, USA) for 30 minutes at 80V and 2 h at 150V. Proteins were transferred onto a 0.2 μm nitrocellulose membrane (Bio-Rad, USA) for 1 h at 80V by wet transfer equipment. The membrane was washed twice for 5 min in TBST (10 mM Tris-HCl, 150 mM NaCl, 0.1% Tween 20, pH 7.6) and blocked with 2% Bovine Serum Albumin-Tris Buffered Saline Tween 20 (BSA-TBST) for one hour at room temperature on a shaker platform. Subsequently, the membrane was incubated with respective primary antibodies overnight at 4° C. diluted in 2% BSA-TBST (Table 2 for additional information). The following day, the membrane was washed three times for 5 min with TBST. An appropriate HRP conjugated rabbit/mouse secondary antibody (Promega) was diluted 1:10000 in 2% BSA-TST and incubated with the membrane for 1 h shaking at room temperature. Finally, the membrane was washed as above and exposed to chemiluminescent reagent (Santa Cruz, Biotechnology Inc.) for 5 min. Stripping/reproving steps were used when necessary. Respective membrane bound protein was then visualized by Chemiluminescence (ChemiDoc Imaging System, Bio-Rad). Bands were quantified by densitometric analysis using ImageJ software (Rasband, WS, ImageJ, US National Institutes of Health, Bethesda, Md., USA). Normalization was performed using a reference protein of the same membrane, the α-Adaptin. The results were expressed as the protein/α-Adaptin ratio or phosphorylated/total protein ratio and normalized to the control group (Y axis represents ‘fold mean of the control values’).
All data are expressed as mean±SEM. Statistical analysis was undertaken for studies where each group size was of, at least, n=5. […]

tau protein = test: Hippocampal tau phosphorylation and total tau (western blot) after 10 days of oral drinking; type: in vivo, Wistar rats; conditions: oral by drinking 100 mg/Kg for 10 days, hippocampus
Procedure: as §1, §2, §3
Western Blot Analysis. The tissue protein (10-15 μg) was subjected to electrophoresis on 4-12% Criterion XT Precast Bis-Tris gels (Bio-Rad, USA) for 30 minutes at 80V and 2 h at 150V. […] Bands were quantified by densitometric analysis using ImageJ software (Rasband, WS, ImageJ, US National Institutes of Health, Bethesda, Md., USA). […] The results were expressed as the protein/α-Adaptin ratio or phosphorylated/total protein ratio and normalized to the control group (Y axis represents ‘fold mean of the control values’).
All data are expressed as mean±SEM. […]

In the case of `OC1C(O)C(O)C(O)C(O)C1O` [DCI, (1R,2R,3S,4S,5S,6S)-cyclohexane-1,2,3,4,5,6-hexol], the “circulating plasma Ghrelin concentration” value (Ghrelin) is reported as “enhances”, the “GSK-3β serine-9 phosphorylation” value ([1]; FIG. 9A.1) is reported as “no effect” and the “GSK-3β tyrosine-216 phosphorylation” value ([1]; FIG. 9A.2) is reported as “no effect”. The “GSK-3β kinase activity (Ser9/Tyr216)” value ([1]; FIG. 9A.3) was “neither enhance nor inhibition”, the “quantity of phospho-tau (AT8: Ser202, Thr205) compared with vehicle group” value (tau protein; FIG. 7A.1) was “dropped to more than half” and the “relative protein levels of total tau compared with vehicle group” value (tau protein; FIG. 7A.2) was “rise”.
